Patent US20100144858A1, “Treatment of movement disorders with a metabotropic glutamate 4 receptor positive allosteric modulator” (priority 2003, published 2010)
Entries after “also recorded” stand apart in the source; their conditions may differ. Like-named read-outs stand apart in the source and are kept apart here.

How the values were obtained:
[1] = target: T1, rat mGluR4 (Rattus norvegicus, UniProt P31423); test: FLIPR Ca2+ flux assay, rat mGluR4; format: cell-based; conditions: n=3, read-out: EC50 for L-AP4 activation of rat mGluR4
T1 construct: expressed in transfected cells; host or cells: CHO or HEK cells, co-expressing Gαqi5
T1 sequence (P31423 33-912): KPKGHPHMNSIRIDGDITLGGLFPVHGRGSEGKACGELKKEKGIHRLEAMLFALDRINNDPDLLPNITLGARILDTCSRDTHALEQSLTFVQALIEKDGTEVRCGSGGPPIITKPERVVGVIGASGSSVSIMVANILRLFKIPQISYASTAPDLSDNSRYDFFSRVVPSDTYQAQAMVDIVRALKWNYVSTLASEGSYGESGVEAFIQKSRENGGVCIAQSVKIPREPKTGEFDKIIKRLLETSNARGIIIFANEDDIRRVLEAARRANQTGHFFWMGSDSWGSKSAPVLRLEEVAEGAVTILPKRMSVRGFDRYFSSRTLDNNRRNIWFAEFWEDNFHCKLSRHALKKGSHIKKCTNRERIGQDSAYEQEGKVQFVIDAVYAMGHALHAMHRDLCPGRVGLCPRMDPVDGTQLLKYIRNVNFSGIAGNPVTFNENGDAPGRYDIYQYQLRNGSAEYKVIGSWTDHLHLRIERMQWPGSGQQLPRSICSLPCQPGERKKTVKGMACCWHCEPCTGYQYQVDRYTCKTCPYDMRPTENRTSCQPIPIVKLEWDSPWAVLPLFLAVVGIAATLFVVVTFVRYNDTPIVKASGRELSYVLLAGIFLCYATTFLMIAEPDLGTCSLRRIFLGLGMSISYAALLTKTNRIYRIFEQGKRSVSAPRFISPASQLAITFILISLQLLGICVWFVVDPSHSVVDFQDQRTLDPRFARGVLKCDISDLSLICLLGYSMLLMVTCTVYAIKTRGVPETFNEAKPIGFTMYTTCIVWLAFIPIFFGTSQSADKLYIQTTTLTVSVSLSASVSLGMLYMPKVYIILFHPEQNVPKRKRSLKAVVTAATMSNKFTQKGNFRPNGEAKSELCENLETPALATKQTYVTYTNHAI

[2] = test system: striato-pallidal synapse; test: Brain slice whole-cell patch-clamp, evoked IPSCs at striato-pallidal synapse; parameters: species or system rat; conditions: for effect on striato-pallidal transmission, compound alone: L-AP4 1 μM, PHCCC 30 μM, rat brain slice
Description: Animals: All studies were performed in an AAALAC accredited facility in accordance with all applicable guidelines regarding the care and use of animals. Animals were group housed with access to food and water ad libitum. Slice Preparation: All experiments were performed on slices from 26 to 30-d-old Sprague Dawley rats (Taconic, Germantown, N.Y.). Animals were killed by decapitation and brains were rapidly removed and submerged in an ice-cold solution containing (in mM): choline chloride 126, KCl 2.5, NaH2PO4 1.2, MgCl2 1.3, MgSO4 8, glucose 10, and NaHCO3 26, equilibrated with 95% O2/5% CO2 (11). The brain was glued to the chuck of a vibrating blade microtome (Leics Microsystems, Nussloch GmbH) and parasagittal slices (300 μm thick) were obtained. Slices were immediately transferred to a 500 ml holding chamber containing artificial cerebrospinal fluid (in mM): NaCl 124, KCl 2.5, MgSO4 1.3, NaH2PO4 1.0, CaCl2 2, glucose 20, and NaHCO3 26, equilibrated with 95% O2/5% CO2 that was maintained at 32° C. After 20-min at 32° C., the holding chamber was allowed to gradually decrease to room temperature. In all experiments 5 μM glutathione, 500 μM pyruvate, and 250 μM kynurenic acid were included in the choline chloride buffer and in the holding chamber ACSF. Electrophysiology: Whole-cell patch-clamp recordings were obtained (Marino et al., (2001) J. Neurosci. 21: 7001-7012. During recording, slices were maintained fully submerged on the stage of a 1 ml brain slice chamber at 32° C. and perfused continuously with equilibrated ACSF (2-3 ml/min). Neurons were visualized using a differential interference contrast microscope and an infrared video system. Patch electrodes were pulled from borosilicate glass on a two-stage puller and had resistances in the range of 3-7 MΩ when filled with the following internal solution: (in mM): potassium gluconate 125, NaCl 4, NaH2PO4 6, CaCl2 1, MgSO4 2, BAPTA-tetrapotassium salt 10, HEPES 10, Mg-ATP 2, Na2-GTP 0.3, pH=7.4. All recordings were done using HEKA EPC9 patch clamp amplifiers (HEKA Elektronik, Lambrecht/Pfalz, Germany). […]

[3] = target: T2, human mGluR4 (Homo sapiens, UniProt Q14833); test: FLIPR Ca2+ flux assay, human mGluR4; format: cell-based; parameters: expressed in transfected cells; host or cells: CHO or HEK cells, co-expressing Gαqi5; conditions: n=3, read-out: EC50 for L-AP4 activation of human mGluR4
Target sequence in this assay (Q14833 33-912): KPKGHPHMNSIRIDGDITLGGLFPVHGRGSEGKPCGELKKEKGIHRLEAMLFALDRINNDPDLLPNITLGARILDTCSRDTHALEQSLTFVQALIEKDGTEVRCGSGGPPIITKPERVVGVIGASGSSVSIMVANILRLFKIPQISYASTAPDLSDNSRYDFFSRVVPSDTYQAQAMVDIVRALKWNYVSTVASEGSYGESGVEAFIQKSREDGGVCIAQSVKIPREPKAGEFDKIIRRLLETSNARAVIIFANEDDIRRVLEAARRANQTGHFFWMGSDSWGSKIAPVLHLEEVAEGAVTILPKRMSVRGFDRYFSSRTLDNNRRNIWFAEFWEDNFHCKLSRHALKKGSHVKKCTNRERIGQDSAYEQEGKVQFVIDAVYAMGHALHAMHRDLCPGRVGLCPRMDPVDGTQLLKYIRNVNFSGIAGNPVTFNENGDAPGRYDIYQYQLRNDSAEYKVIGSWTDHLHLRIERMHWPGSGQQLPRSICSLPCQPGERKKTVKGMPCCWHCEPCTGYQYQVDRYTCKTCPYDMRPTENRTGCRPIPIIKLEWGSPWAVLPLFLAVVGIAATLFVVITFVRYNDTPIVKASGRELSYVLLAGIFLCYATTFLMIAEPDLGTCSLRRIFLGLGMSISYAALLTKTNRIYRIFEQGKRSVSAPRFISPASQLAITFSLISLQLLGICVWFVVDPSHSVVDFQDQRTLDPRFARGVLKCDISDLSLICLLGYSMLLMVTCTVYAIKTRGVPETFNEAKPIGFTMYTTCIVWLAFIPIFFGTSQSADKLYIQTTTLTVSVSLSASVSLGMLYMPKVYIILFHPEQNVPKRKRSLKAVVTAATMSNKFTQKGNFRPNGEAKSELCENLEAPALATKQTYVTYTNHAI
Description: (§1) Cells expressing mGluR2, mGluR4, mGluR7 and mGluR8 were coexpressed with Gα16, Gαqi5, Gα15 and Gα15, respectively. Cells were evaluated using a fluorometric imaging plate reader (FLIPR, Molecular Devices, Sunnyvale, Calif.), to measure their ability to mobilize Ca^2+ in response to appropriate agonists (i.e., glutamate and L-AP4).
(§2) CHO or HEK cells expressing mGluR receptors (mGluR CHO or HEK cells) were plated (50,000-70,000 cells/well) in clear-bottomed, poly-D-lysine-coated plates (Becton-Dickinson) in glutamate/glutamine-free medium. The plated cells were grown overnight at 37° C. in the presence of 6% CO2. The following day, the cells were washed with 3×100 μl assay buffer (Hanks Balanced Salt Solution containing 20 mM HEPES, 2.5 mM probenecid, and 0.1% bovine serum albumin) using a Skatron Embla cell washer. The cells were incubated with 1 μM Fluo-4AM (Molecular Probes, Eugene, Oreg.) for 1 h at 37° C. and 6% CO2. The extracellular dye was removed by washing as described above. […] Ca^2+ flux was measured using a FLIPR.

[4] = test system: any other mGluR subtype; test: FLIPR Ca2+ flux assay, other mGluR subtypes (activation or potentiation); format: cell-based; conditions: 10 μM
[5] = target: T3, mGluR1b (Homo sapiens, UniProt Q13255); test: FLIPR Ca2+ flux assay, mGluR1b antagonism; format: cell-based; conditions: 10 μM
T3 construct: expressed in transfected cells; host or cells: CHO or HEK cells
T3 sequence (Q13255 19-906 isoform Q13255-2 limits assumed): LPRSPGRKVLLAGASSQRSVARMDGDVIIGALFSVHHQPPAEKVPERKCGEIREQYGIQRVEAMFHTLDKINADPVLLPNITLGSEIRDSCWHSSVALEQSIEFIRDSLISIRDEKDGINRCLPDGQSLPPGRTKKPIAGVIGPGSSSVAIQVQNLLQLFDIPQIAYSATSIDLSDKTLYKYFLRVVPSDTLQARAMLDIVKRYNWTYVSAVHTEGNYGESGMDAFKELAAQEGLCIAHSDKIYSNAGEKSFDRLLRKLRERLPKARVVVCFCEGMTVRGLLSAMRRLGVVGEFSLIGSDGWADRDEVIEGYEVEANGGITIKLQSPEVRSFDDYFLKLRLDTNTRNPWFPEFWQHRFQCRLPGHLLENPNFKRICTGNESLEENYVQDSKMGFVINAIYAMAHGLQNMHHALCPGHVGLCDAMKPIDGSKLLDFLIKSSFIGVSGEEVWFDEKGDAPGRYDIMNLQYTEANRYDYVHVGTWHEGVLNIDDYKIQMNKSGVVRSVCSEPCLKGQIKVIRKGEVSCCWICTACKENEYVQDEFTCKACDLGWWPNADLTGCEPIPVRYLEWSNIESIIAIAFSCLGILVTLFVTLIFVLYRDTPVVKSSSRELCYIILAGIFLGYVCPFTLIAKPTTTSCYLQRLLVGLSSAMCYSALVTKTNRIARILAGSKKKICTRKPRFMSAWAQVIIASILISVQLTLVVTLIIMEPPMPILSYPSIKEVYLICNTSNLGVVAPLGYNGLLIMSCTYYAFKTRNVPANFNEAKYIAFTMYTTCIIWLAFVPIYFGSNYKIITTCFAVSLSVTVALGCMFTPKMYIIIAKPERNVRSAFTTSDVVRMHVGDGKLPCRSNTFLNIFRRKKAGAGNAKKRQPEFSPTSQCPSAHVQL

[6] = target: T4, mGluR2 (Homo sapiens, UniProt Q14416); test: FLIPR Ca2+ flux assay, mGluR2 antagonism; format: cell-based; conditions: 10 μM
T4 construct: expressed in transfected cells; host or cells: CHO or HEK cells, co-expressing Gα16
T4 sequence (Q14416 19-872): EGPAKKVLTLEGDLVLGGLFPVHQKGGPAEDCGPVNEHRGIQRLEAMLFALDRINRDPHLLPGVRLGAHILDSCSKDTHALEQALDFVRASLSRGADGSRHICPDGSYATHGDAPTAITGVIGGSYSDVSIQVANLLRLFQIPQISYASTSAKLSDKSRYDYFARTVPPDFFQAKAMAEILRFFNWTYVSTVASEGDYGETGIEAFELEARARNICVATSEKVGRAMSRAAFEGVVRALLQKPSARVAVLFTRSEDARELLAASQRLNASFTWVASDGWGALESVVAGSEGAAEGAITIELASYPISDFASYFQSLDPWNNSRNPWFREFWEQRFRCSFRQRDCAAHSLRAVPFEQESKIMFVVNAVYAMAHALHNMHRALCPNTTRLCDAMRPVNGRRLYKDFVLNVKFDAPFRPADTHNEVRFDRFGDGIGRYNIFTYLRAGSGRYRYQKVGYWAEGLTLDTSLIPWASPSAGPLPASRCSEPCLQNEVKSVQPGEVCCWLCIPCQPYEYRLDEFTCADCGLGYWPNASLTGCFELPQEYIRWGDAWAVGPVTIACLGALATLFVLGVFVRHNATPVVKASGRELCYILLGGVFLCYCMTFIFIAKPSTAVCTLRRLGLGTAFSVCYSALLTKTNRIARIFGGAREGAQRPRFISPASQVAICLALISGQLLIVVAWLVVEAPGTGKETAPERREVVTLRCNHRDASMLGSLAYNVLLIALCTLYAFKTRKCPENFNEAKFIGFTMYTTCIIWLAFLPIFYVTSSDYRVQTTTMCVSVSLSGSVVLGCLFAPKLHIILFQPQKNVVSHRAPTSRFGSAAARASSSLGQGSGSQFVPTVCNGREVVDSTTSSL

[7] = target: T5, mGluR5a (Homo sapiens, UniProt P41594); test: FLIPR Ca2+ flux assay, mGluR5a antagonism; format: cell-based; conditions: 10 μM
T5 construct: expressed in transfected cells; host or cells: CHO or HEK cells

[8] = target: T6, mGluR8 (Homo sapiens, UniProt O00222); test: FLIPR Ca2+ flux assay, mGluR8 antagonism; format: cell-based; conditions: 10 μM
T6 construct: expressed in transfected cells; host or cells: CHO or HEK cells, co-expressing Gα15
T6 sequence (O00222 34-908, species assumed): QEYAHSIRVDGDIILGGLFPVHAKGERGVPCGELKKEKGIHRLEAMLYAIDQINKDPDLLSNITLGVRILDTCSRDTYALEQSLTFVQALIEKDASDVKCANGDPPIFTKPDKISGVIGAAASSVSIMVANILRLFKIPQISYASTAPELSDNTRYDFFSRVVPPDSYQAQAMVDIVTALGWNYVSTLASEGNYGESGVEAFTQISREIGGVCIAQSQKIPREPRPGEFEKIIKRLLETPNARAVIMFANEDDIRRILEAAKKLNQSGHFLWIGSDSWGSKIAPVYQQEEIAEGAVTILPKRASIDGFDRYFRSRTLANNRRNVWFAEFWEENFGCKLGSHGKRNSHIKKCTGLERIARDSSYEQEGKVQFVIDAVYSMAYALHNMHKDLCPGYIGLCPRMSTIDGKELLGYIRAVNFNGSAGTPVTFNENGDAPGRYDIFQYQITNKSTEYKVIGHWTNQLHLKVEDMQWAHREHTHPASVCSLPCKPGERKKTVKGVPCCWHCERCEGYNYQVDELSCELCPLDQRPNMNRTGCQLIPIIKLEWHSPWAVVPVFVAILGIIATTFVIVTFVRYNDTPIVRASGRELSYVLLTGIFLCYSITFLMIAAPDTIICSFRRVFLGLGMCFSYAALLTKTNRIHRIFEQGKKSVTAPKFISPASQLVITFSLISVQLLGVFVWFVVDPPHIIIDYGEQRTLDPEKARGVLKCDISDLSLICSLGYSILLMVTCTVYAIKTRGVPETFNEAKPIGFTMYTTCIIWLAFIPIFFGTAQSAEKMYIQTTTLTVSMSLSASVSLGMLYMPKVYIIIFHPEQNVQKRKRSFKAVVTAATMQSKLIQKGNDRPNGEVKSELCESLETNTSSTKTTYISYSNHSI

[9] = test system: Schaffer collateral-CA1 (SC-CA1) synapse (mGluR7); test: Hippocampal field recordings (fEPSPs), SC-CA1 synapse; parameters: species or system rat; conditions: submaximal L-AP4; fEPSP slope
[10] = test system: lateral perforant path-dentate gyrus (LPP-DG) synapse (mGluR8); test: Hippocampal field recordings (fEPSPs), LPP-DG synapse; parameters: species or system rat; conditions: submaximal L-AP4; fEPSP slope
[11] = test system: reserpine-induced akinesia; test: Reserpine-induced akinesia model of Parkinson's disease; format: in vivo; conditions: rat, 75 nmol icv, reserpine 5 mg/kg sc, beam breaks/30 min
Description: Behavior: Third ventricle cannulated male Sprague-Dawley rats (250-350) were purchased from Taconic Farms (Germantown, N.Y.) with guide cannula implanted such that subsequent placement of an injection cannula allowed for infusion into the third ventricle. These rats were used for intracerebral ventricular (icy) injection of test compounds within one week of arrival to the testing facility. All experiments were carried out during the light cycle (6.00-18.00).
Rats were injected with reserpine (5 mg/kg sc, dissolved in 1% acetic acid) and kept in their home cages for 1.5-2 hr post-injection. Activity was measured by placing rats in photocell activity cages (Hamilton-Kinder, Inc., Poway, Calif.) equipped with 16×16 infrared beams. […] Five min following the injection of test compound or vehicle, motor activity was recorded for an additional 30 min for each rat. Motor activity (cumulative beam breaks/30-min period) was recorded both pre- and post-drug treatment for each rat. […] Post hoc comparisons were performed using the Bonferroni test. Statistical significance was achieved when p<0.05. Data are expressed as mean +/− one SEM.

[12] = test system: mGluR4; test: FLIPR Ca2+ flux assay in mGluR4 CHO cells; conditions: in the presence of 10 μM PHCCC
Description: as §1, §2

[13] = target: T2, human mGluR4; test: FLIPR Ca2+ flux assay in mGluR4 CHO cells
Description: as §1, §2

Row | IC50 ([13]; read-out: mGluR4 antagonist IC50, at higher concentrations) | Compound | EC50 ([1]; with 10 μM PHCCC) | EC50 ([1]; without PHCCC) | effect on striato-pallidal transmission, compound alone [2] | EC50 ([3]; in the absence of PHCCC) | EC50 ([3]; with 10 μM PHCCC) | activation or potentiation of responses of other mGluR subtypes [4] | block of response of mGluR1b to glutamate [5] | block of response of mGluR2 to glutamate [6] | block of response of mGluR5a to glutamate [7] | block of response of mGluR8 to glutamate [8] | effect on striato-pallidal transmission, co-application with L-AP4 ([2]; 30 μM PHCCC and 1 μM L-AP4, p<0.01, n=4) | effect on L-AP4-induced inhibition of transmission at SC-CA1 synapse [9] | effect on L-AP4-induced inhibition of transmission at LPP-DG synapse [10] | locomotor activity (reversal of reserpine-induced akinesia) [11] | increase of the maximal effect of L-AP4 [12] | effect on the response of mGluR4 to agonists (potentiation) ([13]; concentrations up to 30 μM)
1 |  | NC(CCP(=O)(O)O)C(=O)O [L-AP4] | 67.6 ± 5.2 nM | 832 ± 100 nM | small but significant inhibition | 484 ± 45 nM | 71.4 ± 2.9 nM |  |  |  |  |  |  |  |  |  |  | 
2 |  | N-phenyl-7-(hydroxylimino)cyclopropa[b]chromen-1a-carboxamide [PHCCC] |  |  | no effect |  |  | does not potentiate or activate any other mGluR subtype; also recorded: did not activate or potentiate | partially blocked | partially blocked | partially blocked | partially blocked | potentiate the effect of the mGluR4 agonist L-AP4 in inhibiting transmission; also recorded: marked inhibition | no significant effect | no significant effect | overcome inhibition of movement; also recorded: significant increase in locomotor activity | approximately two-fold | 
3 | > 100000 nM | 7-(hydroxylimino)cyclopropa[b]chromen-1a-carboxamide ethyl ester [CPCCOEt] |  |  |  |  |  |  |  |  |  |  |  |  |  | no effect |  | no mGluR4 potentiator activity; also recorded: did not have any effect
